Results on three compounds are retold here after publication PMC9023544, “Ketone-selenoesters as potential anticancer and multidrug resistance modulation agents in 2D and 3D ovarian and breast cancer in vitro models” (Scientific Reports, 2022).

One data set concerns MCF-7/PAX spheroids. Nature of the data set: Cytotoxic activity against 3D models, CellTiter-Glo 3D. It is filed as cell-based. The following applies: Homo sapiens, MCF7; 72 h old spheroids, 72 h incubation, n=4. The method, then: (§1) The ability of selenoesters to affect the formation of spheroids was described in the previous section. Subsequently, we have tested the cytotoxic potential of selenoesters in preformed 72 h old spheroids. Both sensitive and resistant mature breast and ovarian cells spheroids were incubated in the presence of selenoesters in a concentration range 1.6–100 µM. […] A safe concentration of selenoesters has been established based on the results of sensitization of drug-resistant 3D models.
(§2) Human ovarian and breast cancer cells (HOC, MCF-7, parental and resistant) were seeded in ultra-low attachment 96-well plates (Sigma-Aldrich) at a cell density of 0.5 × 10^5 cells/mL. After 3 days of spheroid formation, plates were carefully washed once with PBS and fresh DMEM medium (99 µL) was added. Using a binary compound dilution, the concentration range of the K3, K4, K7 compounds was prepared in new 96-well plates (0.16–10 mM). After 1 µL compound transfer, the final concentration range of compounds was 1.6–100 µM. The required volume of DMSO (1% V/V) was added to the positive control. After 72 h of incubation, 100 µL of CellTiter-Glo 3D Re-agent (Promega) was added to each well. Spheroid plates were incubated for 25 min at room temperature. Subsequently, the luminescent signal was recorded by detector (SpectraMax i3x Multi-Mode Microplate reader with MiniMax Imaging Cytometer, Molecular Devices).

Another data set deals with HOC/ADR spheroids. The description is as above. In kind it is cell-based. The following applies: Homo sapiens; 72 h old spheroids, 72 h incubation, n=4. The method, then: as §1, §2
The test system of another data set is HOC spheroids. The description is as above. In kind it is cell-based. Conditions: Homo sapiens; 72 h old spheroids, 72 h incubation, n=4. The method, then:
as §1, §2

In a further data set the test system is MCF-7 spheroids. Described as above. The following applies: Homo sapiens, MCF7; 72 h old spheroids, 72 h incubation, n=4. In kind it is cell-based. The method, then: as §1, §2
Data set [1] addresses T1, human recombinant P-gp membrane fraction (Homo sapiens, UniProt P08183).
T1 construct: purchased Promega
Nature of the data set: P-gp-Glo assay, verapamil-stimulated P-gp ATPase activity. It is filed as biochemical. Conditions: for IC50: read-out: IC50, verapamil-stimulated P-glycoprotein ATPase activity; for mechanism of P-gp inhibition: with and without verapamil. The method, then: P-gp Glo™ Assay System represents a bioluminescent assay for the detection of P-gp ATPase activity. […] The activity of P-gp is inversely proportional to the luciferase-generated luminescent signal of unmetabolized ATP. For the detection of P-gp inhibitory potential, the compounds (concentration range 12.5–100 µM) were tested for their capacity to inhibit verapamil-stimulated P-gp ATPase activity in a competitive mode.
Using ATP standard curve and linear regression, the average amount of ATP consumed in presence of each compound was calculated. Afterwards, the specific P-gp activity (consumed ATP) was plotted versus the concentrations of the test compound and IC50 values were determined (Table 6). By using one-way ANOVA analysis, the statistical differences between compounds were identified; the compounds with the most statistically significant inhibition capacity was K3, followed by K4 and K7.
The modulation of P-glycoprotein ATPase activity was performed according to the manufacturer’s guidelines[54] and previously published work[55]. […] The reduction of verapamil-stimulated ATPase activity by selenoesters can indicate them as P-gp ATPase inhibitors. The reaction was initiated with 10 µL of MgATP (5 mM) addition to the final 50 µL volume. After 1 h incubation at 37 °C, the ATPase reaction was stopped with 50 µL of ATP detection reagent and subsequently the plate was incubated for 20 min at room temperature. Thanks to the luciferase reaction, it was possible to detect the remaining non-metabolized ATP as the luminescent signal. By using ATP standards and linear regression, the relative luminescent values (RLU) were converted to ATP concentration per reaction; and the amount of consumed ATP by the compounds was calculated.

T1 sequence (P08183 whole entry): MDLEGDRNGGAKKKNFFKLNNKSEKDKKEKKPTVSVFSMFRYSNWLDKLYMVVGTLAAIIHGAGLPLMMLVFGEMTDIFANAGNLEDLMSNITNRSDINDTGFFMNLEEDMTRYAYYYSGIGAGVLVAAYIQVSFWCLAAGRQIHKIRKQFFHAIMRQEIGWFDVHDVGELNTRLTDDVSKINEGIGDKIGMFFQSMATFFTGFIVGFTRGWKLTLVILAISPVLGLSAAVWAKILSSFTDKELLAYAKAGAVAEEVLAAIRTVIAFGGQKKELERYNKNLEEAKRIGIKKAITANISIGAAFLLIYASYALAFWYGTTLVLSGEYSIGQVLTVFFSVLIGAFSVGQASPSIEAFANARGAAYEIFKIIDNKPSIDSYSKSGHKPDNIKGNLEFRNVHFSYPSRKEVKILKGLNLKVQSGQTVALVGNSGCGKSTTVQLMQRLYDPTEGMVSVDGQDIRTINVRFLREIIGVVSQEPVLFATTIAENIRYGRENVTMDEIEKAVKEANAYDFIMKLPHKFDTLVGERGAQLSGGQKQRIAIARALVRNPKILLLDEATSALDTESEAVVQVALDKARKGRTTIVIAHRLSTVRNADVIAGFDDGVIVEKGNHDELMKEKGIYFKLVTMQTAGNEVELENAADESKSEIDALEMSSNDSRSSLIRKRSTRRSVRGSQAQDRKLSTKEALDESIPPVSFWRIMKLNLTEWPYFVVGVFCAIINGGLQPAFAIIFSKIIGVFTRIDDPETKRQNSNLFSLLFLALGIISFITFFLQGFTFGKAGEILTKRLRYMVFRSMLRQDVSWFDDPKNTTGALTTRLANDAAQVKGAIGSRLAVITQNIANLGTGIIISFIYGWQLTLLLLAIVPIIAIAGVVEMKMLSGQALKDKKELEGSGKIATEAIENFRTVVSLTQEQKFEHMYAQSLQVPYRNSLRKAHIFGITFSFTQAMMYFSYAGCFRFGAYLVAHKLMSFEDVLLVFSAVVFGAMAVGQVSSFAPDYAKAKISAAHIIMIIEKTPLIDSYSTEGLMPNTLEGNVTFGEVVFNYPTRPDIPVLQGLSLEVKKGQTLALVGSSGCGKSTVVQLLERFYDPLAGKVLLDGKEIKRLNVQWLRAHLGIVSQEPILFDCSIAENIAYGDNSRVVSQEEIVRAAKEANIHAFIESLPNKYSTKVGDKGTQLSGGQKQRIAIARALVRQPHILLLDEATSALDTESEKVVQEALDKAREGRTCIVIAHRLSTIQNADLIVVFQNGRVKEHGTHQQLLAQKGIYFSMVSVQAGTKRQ

Regarding `CC(=O)C[Se]C(=O)c1ccc(Br)cc1` [K3], the IC50 was found to be 4 ± 0.1 µM with MCF-7/PAX spheroids; 3.9 ± 0.2 µM in the data set on HOC/ADR spheroids; 1.7 ± 0.1 µM in the data set with HOC spheroids; 2.5 ± 0.2 µM with MCF-7 spheroids; 11.7 ± 1 µM in data set [1]. The “inhibition of verapamil-stimulated P-gp ATPase activity (luminescent signal)” value in data set [1] (K3 50 µM versus Na3VO4 100 µM) is “more effectively inhibited than sodium orthovanadate”. In addition, the “mechanism of P-gp inhibition” value in data set [1] is “competitively inhibits efflux of another substrate”.
For the compound `CC(=O)C[Se]C(=O)c1ccccc1C(F)(F)F` [K4], the half-maximal inhibitory concentration (IC50) in the data set with MCF-7/PAX spheroids came out at 4.8 ± 0.3 µM; in the data set on HOC/ADR spheroids, 10.5 ± 0.5 µM; with HOC spheroids, 3.1 ± 0.1 µM; in the data set with MCF-7 spheroids, 2.1 µM; in data set [1], 23 ± 0.2 µM.
On to `CC(=O)C[Se]C(=O)c1ccc(C(C)(C)C)cc1` [K7], for which the half-inhibitory concentration (IC50) stood at 7.5 ± 0.2 µM with MCF-7/PAX spheroids; 10.1 ± 0.5 µM with HOC/ADR spheroids; 2.8 ± 0.1 µM with HOC spheroids; 2.2 ± 0.3 µM with MCF-7 spheroids; 25.7 ± 0.6 µM in data set [1]. For the same compound, the “mechanism of P-gp inhibition” value in data set [1] is “non-competitive P-gp inhibitor”.
